Source: patent US4880824A, “Phenyl and benzoyl substituted imidazo-fused heterocyclic calcium channel blockers” (Ortho Pharmaceutical Corporation, priority 1987, dated 1989)
Structures can show the parent of a compound that is named as a salt.

Tests used:
[1] = biological target: T1, calcium channel (specifically bound 3H-nitrendipine, heart membranes) (Oryctolagus cuniculus, UniProt P15381); test: Nitrendipine Binding Assay (NBA); parameters: species or system New Zealand white rabbits; conditions: for IC50: 3H-nitrendipine 0.05-0.50 nM, 90 min at 4° C., pH 7.4
T1 construct: The heart is immediately removed, cleaned and chopped into small pieces; from tissue; host or cells: heart membranes of female New Zealand white rabbits (42,000×g pellet)
T1 sequence (P15381 whole entry, other chains not shown): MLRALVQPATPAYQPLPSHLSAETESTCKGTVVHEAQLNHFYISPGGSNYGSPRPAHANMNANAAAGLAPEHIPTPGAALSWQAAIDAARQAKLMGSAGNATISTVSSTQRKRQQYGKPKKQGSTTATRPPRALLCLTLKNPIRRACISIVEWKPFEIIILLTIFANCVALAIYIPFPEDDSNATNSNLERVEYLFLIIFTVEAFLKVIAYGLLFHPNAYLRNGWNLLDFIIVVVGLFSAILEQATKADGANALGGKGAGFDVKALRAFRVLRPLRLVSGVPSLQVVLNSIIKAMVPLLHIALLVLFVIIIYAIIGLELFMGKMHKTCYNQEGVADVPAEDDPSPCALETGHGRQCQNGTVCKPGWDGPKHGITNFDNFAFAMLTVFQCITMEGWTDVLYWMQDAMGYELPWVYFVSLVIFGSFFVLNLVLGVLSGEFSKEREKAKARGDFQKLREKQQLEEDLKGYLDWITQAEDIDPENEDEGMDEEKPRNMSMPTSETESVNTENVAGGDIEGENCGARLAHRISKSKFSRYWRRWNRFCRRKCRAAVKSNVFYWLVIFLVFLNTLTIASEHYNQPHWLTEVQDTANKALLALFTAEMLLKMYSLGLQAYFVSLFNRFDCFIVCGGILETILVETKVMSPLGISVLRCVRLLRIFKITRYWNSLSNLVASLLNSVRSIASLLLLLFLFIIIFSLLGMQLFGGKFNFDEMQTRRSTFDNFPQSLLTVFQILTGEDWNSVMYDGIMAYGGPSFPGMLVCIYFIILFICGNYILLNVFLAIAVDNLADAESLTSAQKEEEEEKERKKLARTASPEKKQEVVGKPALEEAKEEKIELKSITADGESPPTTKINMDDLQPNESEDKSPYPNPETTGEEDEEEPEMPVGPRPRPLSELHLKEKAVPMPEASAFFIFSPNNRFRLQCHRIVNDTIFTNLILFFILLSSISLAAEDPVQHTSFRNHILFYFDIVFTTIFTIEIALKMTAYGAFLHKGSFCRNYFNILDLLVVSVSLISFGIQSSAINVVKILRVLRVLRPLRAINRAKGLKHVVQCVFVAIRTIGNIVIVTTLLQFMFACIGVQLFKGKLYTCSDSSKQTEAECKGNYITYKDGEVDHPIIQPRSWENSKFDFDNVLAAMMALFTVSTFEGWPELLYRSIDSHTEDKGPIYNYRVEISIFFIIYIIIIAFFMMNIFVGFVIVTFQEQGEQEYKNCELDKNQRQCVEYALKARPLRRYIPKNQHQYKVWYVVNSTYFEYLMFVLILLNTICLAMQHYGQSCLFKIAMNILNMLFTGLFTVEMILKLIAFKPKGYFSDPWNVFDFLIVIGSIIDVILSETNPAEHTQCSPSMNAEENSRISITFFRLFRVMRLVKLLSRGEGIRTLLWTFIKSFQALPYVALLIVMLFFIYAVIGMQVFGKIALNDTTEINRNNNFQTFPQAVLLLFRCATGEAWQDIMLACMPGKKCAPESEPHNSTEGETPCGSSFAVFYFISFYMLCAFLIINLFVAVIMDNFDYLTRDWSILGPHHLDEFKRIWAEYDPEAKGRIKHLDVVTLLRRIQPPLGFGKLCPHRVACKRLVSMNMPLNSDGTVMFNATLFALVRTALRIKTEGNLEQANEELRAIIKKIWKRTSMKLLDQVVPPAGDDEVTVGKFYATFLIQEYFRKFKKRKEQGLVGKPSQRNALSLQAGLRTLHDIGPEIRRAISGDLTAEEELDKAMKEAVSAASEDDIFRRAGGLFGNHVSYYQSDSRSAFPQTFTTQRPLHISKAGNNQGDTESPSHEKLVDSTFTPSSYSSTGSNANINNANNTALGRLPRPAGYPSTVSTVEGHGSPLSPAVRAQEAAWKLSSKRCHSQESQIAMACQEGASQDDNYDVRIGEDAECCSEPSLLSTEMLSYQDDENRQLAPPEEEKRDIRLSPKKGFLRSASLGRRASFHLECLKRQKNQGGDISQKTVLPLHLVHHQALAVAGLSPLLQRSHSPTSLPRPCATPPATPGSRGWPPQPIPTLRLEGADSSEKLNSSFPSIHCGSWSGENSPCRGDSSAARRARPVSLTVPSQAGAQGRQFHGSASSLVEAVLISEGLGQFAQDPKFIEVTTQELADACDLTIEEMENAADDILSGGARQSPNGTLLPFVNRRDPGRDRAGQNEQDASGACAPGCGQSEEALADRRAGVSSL
T1 sequence (P13806 27-960 partner limits assumed, other chains not shown): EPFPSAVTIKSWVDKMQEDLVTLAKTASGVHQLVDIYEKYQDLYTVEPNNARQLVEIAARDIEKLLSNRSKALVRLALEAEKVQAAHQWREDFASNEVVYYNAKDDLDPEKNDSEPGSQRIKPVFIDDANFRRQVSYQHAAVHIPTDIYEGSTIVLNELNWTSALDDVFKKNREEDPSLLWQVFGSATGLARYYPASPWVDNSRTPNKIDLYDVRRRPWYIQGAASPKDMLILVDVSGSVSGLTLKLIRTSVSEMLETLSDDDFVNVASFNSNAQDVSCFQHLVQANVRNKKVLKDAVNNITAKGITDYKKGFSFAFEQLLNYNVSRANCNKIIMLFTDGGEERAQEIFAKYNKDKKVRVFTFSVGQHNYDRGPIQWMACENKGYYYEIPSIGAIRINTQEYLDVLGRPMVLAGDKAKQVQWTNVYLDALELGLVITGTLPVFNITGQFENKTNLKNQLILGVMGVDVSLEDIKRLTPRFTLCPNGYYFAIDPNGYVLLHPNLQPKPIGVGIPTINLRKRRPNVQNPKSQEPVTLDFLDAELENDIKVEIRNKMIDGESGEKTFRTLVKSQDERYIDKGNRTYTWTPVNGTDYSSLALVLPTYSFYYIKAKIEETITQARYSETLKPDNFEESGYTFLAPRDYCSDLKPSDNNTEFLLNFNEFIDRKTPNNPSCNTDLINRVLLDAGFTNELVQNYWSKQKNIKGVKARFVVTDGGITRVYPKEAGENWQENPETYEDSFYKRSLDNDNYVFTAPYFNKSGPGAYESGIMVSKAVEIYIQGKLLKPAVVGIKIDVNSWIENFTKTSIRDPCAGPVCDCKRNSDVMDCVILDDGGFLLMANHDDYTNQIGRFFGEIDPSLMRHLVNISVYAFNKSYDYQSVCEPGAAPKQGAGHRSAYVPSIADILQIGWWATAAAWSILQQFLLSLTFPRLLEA
T1 sequence (P13806 961-1106 partner limits assumed, other chains not shown): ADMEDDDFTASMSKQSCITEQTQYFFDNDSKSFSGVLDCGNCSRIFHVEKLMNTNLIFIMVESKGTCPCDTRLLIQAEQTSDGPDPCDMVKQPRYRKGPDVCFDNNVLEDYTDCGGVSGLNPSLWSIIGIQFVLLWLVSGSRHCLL
Protocol: The NBA is performed on female, New Zealand white rabbits (1-2 kg) which are sacrificed by cervical dislocation. The heart is immediately removed, cleaned and chopped into small pieces. The tissue is homogenized in 5X volume of 0.05M Hepes buffer, pH 7.4. The homogenate is centrifuged at 4000×g for 10 min; the supernatant is recentrifuged at 42,000×g for 90 min. The resulting membrane pellet is resuspended (0.7 ml/g weight in 0.05M Hepes, pH 7.4 and stored at -70° C. until used. Each tube of the binding assay contains ^3 H-nitrendipine (0.05-0.50nM), buffer, membranes (0.10mL), and test compound in a total volume of 1.0 mL. After 90 min at 4° C., the bound nitrendipine is separated from the unbound by filtration on Whatman GF/C fibers. After rinsing, the filters are dried and counted in a liquid scintillation counter.
Non-specific binding of ^3 H-nitrendipine (that amount bound in the presence of excess unlabelled nitrendipine) is subtracted from the total bound to obtain specifically bound radiolabeled nitrendipine. The amount of specifically bound nitrendipine in the presence of a test compound is compared to that amount bound in the absence of a compound. A percent displacement (or inhibition) can then be obtained.

[2] = system: calcium dependent smooth muscle contraction (trachea); test: Inhibition of Calcium Dependent Smooth Muscle Contraction (ICDSMC); parameters: species or system dogs; conditions: Canis lupus familiaris, 50 mM KCl
Protocol: Tracheal rings, one cartilage segment wide (5-10 mm), are cut starting from the bronchial end. After cutting the cartilage, the trachealis muscle tissue is suspended in oxygenated Krebs-Henseleit buffer at 37° C. in a 25 mL tissue bath. After a 60 min equilibration period, the tissues are challenged with 10 μM carbachol. After 5 min the tissues are rinsed and allowed to rest 50 min. The tissues are then challenged with 50 mM KCl and after 30 min, the contractions are quantitated. The tissues are then rinsed and reequilibrated for 50 min. Test compounds are then added for 10 min, and the tissue is rechallenged with 50 mM KCl.
The percent inhibition of smooth muscle contraction is calculated from response data before and after drug treatment according to the following equation. [formula]

SMILES	IC50 [1] [µM]	inhibition at 20 µM [2] [%]	inhibition at 2 µM [2] [%]	inhibition at 10 µM [2] [%]	inhibition at 1 µM [2] [%]	further results
CCCCN(CCCC)CCCOc1ccc(-c2cn3c(n2)sc2ccccc23)cc1 [Example 4, 6-(4-Dibutylaminopropoxyphenyl)imidazo[2,1-b]benzothiadihydrochloride]	3.1	38				
CCCCN(CCCC)CCCOc1ccc(-c2cn3cccnc3n2)cc1 [Example 6, 2-(4-Dibutylaminopropoxyphenyl)imidazo[1,2-a]pyrimidine dihydrochloride]		65	26	46		inhibition at 68 µM ([1]; @ 68 μM, read-out: NBA percent displacement (or inhibition)): 43%
CCCCN(CCCC)CCCOc1ccc(-c2cn3nccnc3n2)cc1 [Example 5, 2-(4-Dibutylaminopropoxyphenyl)imidazo[1,2-b]-1,2,4-triazine hydrochloride]	0.6	85		45		
CCCCN(CCCC)CCCOc1ccc(C(=O)c2cnc3ncccn23)cc1 [Example 8c, 3-(4-Dibutylaminopropoxybenzoyl)imidazo[1,2-a]pyrimidine dihydrochloride]	7				70	inhibition at 0.1 µM ([2]; @ .1 μM): 37%; inhibition at 0.5 µM ([2]; @ .5 μM): 60%
CCCCN(CCCC)CCCOc1ccc(-c2nc3sccn3c2C)cc1 [Example 3, 6-(4-Dibutylaminopropoxyphenyl)-5-methylimidazo[2,1-b]thiazole hydrochloride]	1.3			75	11	
CCCCN(CCCC)CCCOc1ccc(-c2cn3nc(C)sc3n2)cc1 [Example 1d, 6-(4-Dibutylaminopropoxyphenyl)-2-methylimidazo[2,1-b]-1,3,4-thiadiazoledihydrochloride]	1.1			82	50	inhibition at 5 µM ([2]; @ 5 μM): 27%
CCCCN(CCCC)CCCOc1ccc(C(=O)c2cnc3nc(C)ccn23)cc1 [Example 9b, 3-(4-Dibutylaminopropoxybenzoyl)-7-methylimidazo[1,2-a]-pyrimidine hydrochloride]				19		
CCCCN(CCCC)CCCOc1ccc(-c2cn3ccc(C)nc3n2)cc1 [Example 7, 2-(4-Dibutylaminopropoxyphenyl)-7-methylimidazo-[1,2-a]pyrimidine trihydrochloride]			25	39		
CCCCN(CCCC)CCCOc1ccc(-c2cn3ccsc3n2)cc1 [Example 2, 6-(4-Dibutylaminopropoxyphenyl)imidazo[2,1-b]thiazole dihydrochloride]	1.5	81	24	55	8	
